Results from patent publication US12435025B2, “Triphenylphosphonium-tethered salicylamine derivatives” (MTI BIOTECH, INC., priority 2019, dated 2025).
Where two headings read alike, the source gives them in different places.

Experiments:
[1] = Single ascending dose study: safety and tolerability (adverse events, ECG, vital signs, laboratory parameters); assay type: in vivo, human
From the text: (§1) Healthy male and non-pregnant female volunteers over 18 years of age were eligible to participate. Subjects were not permitted to take any medications 2 weeks prior to or during the study. Exclusion criteria included known cardiac, kidney, or hepatic disease; presence of diseases that could manifest morbidity or symptoms/signs that could confound interpretation of the study results; the need to discontinue any drug administered as standard of care treatment; and the unwillingness or inability to use approved birth-control methods.
(§2) This study was an open-label, single ascending dose study designed to assess pharmacokinetics, safety, and tolerability of single doses of 2-hydroxybenzylamine acetate. A 3+3 clinical trial design with a modified Fibonacci sequence dosing scheme^14 was used with a starting dose of 50 mg; thereafter, dosages were increased to 100, 200, 330, 550, and 825 mg. These doses of 2-hydroxybenzylamine acetate correspond to 34, 68, 136, 224, 373, and 560 mg 2-hydroxybenzylamine. Each dose escalation was initiated only after reviewing safety data from all subjects receiving the previous dose.
(§3) Subjects were admitted to the Vanderbilt University Clinical Research Center and remained on the unit for 24 hours after administering 2-hydroxybenzylamine acetate orally in capsules to participants. […] Subjects were monitored at protocol-defined intervals for 24 hours after administration of 2-hydroxybenzylamine. Safety assessments included vital signs (heart rate, respiration rate, blood pressure, and SpO2), clinical laboratory parameters (blood biochemistry, hematology, and urinalysis), 12-lead ECGs, and potential adverse event assessments. All adverse events were recorded, regardless of whether they were considered study-related.

[2] = tested on: paws injected with carrageenan; conditions: mice, intraperitoneally 200 mg/kg; cited from earlier work
sodium channel = conditions: cited from earlier work
[3] = mice, drinking water, 1 to 10 grams per liter; cited from earlier work
γKA protein adducts = conditions: compared with PM; cited from earlier work
[4] = Half-life of SA in the blood; assay type: in vivo; conditions: estimated
[5] = Single ascending dose study: plasma pharmacokinetics of 2-hydroxybenzylamine; assay type: in vivo, human; conditions: for Cmax / Tmax / AUC(0-inf) / half-life: both sexes, human, plasma; for AUC(0-inf): read-out: AUC (zero to infinity)
From the text: as §1
2-Hydroxybenzylamine (as the acetate salt, CAS 1206675-01-5) was obtained from TSI (China) Co., Ltd. (Shanghai, China). A commercial production lot was used (Lot 16120312). Our laboratory verified the purity of the commercial lot to be >99% via HPLC and NMR spectroscopy. Hard gel capsules (Capsugel, Jiangsu, China) containing 50, 110, and 412.5 mg of 2-hydroxybenzylamine acetate (corresponding to 34, 75, and 281 mg 2-hydroxybenzylamine) were prepared by TSI (China) Co., Ltd. Determinations of average fill weight, uniformity of weight, disintegration, 2-hydroxybenzylamine content, acetate content, and microbial and analytical tests were within all specification limits.
as §2, §3
Blood samples for pharmacokinetic analyses were collected at baseline, 0.25, 0.5, 1, 2, 6, 4, 8, and 24 hours after 2-hydroxybenzylamine acetate administration for all dose levels. The 0.25-hour sample was only collected for dosages≤200 mg, and the 6-h sample was only collected for dosages≥330 mg.
[^2H4]-2-hydroxybenzylamine, prepared by Dr. Venkataraman Amarnath as previously described^11, was used as an internal standard. An internal standard solution (100 ng/mL) of ([^2H4]-2-hydroxybenzylamine was prepared in acetonitrile and added to all standards, quality control samples, and patient samples. Standard and quality control samples of 1 mg/mL 2-hydroxybenzylamine were prepared in water. Eight standard curve samples (5, 10, 20, 100, 200, 1000, 2000, and 5000 ng/mL) were prepared with blank human plasma (Bioreclamation, Westbury, NY). In addition, three quality control samples (15, 300, and 3000 ng/mL) were prepared in blank human plasma. Plasma samples were allowed to thaw at room temperature and then vortexed. Internal standard solution (400 μL) and 100 μL of either plasma, quality controls, or standards were added and mixed in a protein precipitation filter 96-well plate (Phenomenex, Torrance, CA). The solution was eluted into a 96-well plate using a positive pressure manifold and then dried under nitrogen gas at 40° C. The samples were then reconstituted in 97/3 v/v water/acetonitrile with 10 mM ammonium formate for analysis. […]

HepG2 cells = conditions: cited from earlier work
[6] = in vivo; cited from earlier work
[7] = single oral dose 50 mg 2-hydroxybenzylamine acetate, mean, n = 3
[8] = single oral dose 100 mg 2-hydroxybenzylamine acetate, mean, n = 3

CC(=O)O.NCc1ccccc1O [2-Hydroxybenzylamine acetate, 2-hydroxybenzylamine acetate]
Abdominal bloating ([1]; both, human, in vivo, 24 h): 1 n (%)
Any event ([1]; both, human, in vivo, 24 h): 5 n (%)
Frequent urination ([1]; both, human, in vivo, 24 h): 2 n (%)
Headache ([1]; both, human, in vivo, 24 h): 1 n (%)
Itchy throat ([1]; both, human, in vivo, 24 h): 1 n (%)
Rash ([1]; both, human, in vivo, 24 h): 1 n (%)
Sleepiness ([1]; both, human, in vivo, 24 h): 1 n (%)

NCc1ccccc1O [2-hydroxybenzylamine]
edema in paws injected with carrageenan [2]: decreased edema
protection of sodium channel function inhibited by γKA or oxidants (sodium channel): protects
tissue concentrations [3]: 10 to 500 µM
serious adverse events or deaths ([1]; all doses): no serious adverse events or deaths
participants who reported at least 1 adverse event ([1]; both, human, in vivo, 24 h): 28%
subjects with frequent urination (most common adverse event) ([1]; both, human, in vivo, 24 h): 11%
adverse event frequency or severity versus dose ([1]; in vivo): no dose-dependent increase
changes in ECG recordings, vital signs, or laboratory parameters ([1]; in vivo): No clinically significant changes
intensity of adverse events ([1]; in vivo): mild
study-related adverse events ([1]; in vivo): No adverse events were determined to be study-related
inhibition of γKA protein adducts in cells (γKA protein adducts): significantly better inhibitor of γKA protein adducts in cells than PM
half-life [4]: ~2 h
Cmax [5, 7]: 90 ng/mL
Tmax [5, 7]: 1.33 h
AUC(0-inf) [5, 7]: 396 ng·h/mL
half-life ([5]; single oral dose 50 mg 2-hydroxybenzylamine acetate, mean, n = 3, read-out: Half-life (converted)): 2.04 h
Cmax [5, 8]: 156 ng/mL
Tmax [5, 8]: 1.33 h
AUC(0-inf) [5, 8]: 622 ng·h/mL
half-life ([5]; single oral dose 100 mg 2-hydroxybenzylamine acetate, mean, n = 3, read-out: Half-life (converted)): 2.33 h
half-life ([5]; single oral doses, overall mean, read-out: mean half-life (converted)): 2.1 h
AUCextrap [5, 7]: 9.1%
AUCextrap [5, 8]: 11.2%
Cmax and AUC versus dose ([5]; single oral doses 50-825 mg 2-hydroxybenzylamine acetate): dose-dependent changes
protection of HepG2 cells from cytotoxicity induced by hydrogen peroxide (HepG2 cells): protects

O=C(O)c1ccccc1O [salicylic acid]
salicylate in the blood bound to protein [6]: 80-90%

Cc1ncc(CO)c(CN)c1O [PM, pyridoxamine]
protection of HepG2 cells from cytotoxicity induced by hydrogen peroxide (HepG2 cells): ineffective
